Assay results reported in patent US20190314311A1, “PHARMACEUTICAL COMPOSITION” (JAPAN SCIENCE AND TECHNOLOGY AGENCY, priority 2016, published 2019).

What was measured:
Thio-Q62 protein [1] = assay: protein aggregation turbidity assay; type: biochemical; conditions: 8.2 μM Thio-Q62, 600 mM arginine, PBS, 37° C., neutral pH, 5 days
Description: In the subsequent experiments, the protein aggregation turbidity assay was performed by the method described in Non-Patent Document 6. Specifically, it was performed as follows.
A solution in which abnormally expanded proteins were dissolved in physiological saline phosphate (PBS) was used as a measurement sample. The solution was incubated at 37° C., and turbidity at 405 nm was measured every 24 hours using a microplate reader “Spectramax Plus plate reader” (Molecular Devices Inc.).
As an abnormally expanded PolyQ protein, a Thioredoxin-Q62 (Thio-Q62) fusion protein consisting of Thioredoxin and a PolyQ stretch with 62 glutamines was used.
As a control, Thio-Q62 protein alone was incubated in the same manner, and the turbidity was measured every 24 hours.
As controls, a solution containing Thio-Q62 protein alone, and a solution containing Thio-Q62 protein and 400 mM proline were incubated in the same manner, respectively, and turbidity was measured after 5 days. […] The relative turbidity (%) of each solution was measured. The turbidity of the solution containing Thio-Q62 protein alone was set to 100%. In the figure, values represent means±SEM (n=3). “*” represents p<0.05, “***” represents p<0.001, “n.s.” represents not significant.

Thio-Q62 protein [2] = assay: native PAGE of β-sheet conformational transition; type: biochemical; conditions: 8.2 μM Thio-Q62, 600 mM arginine, PBS pH 7.5, 37° C., five days
Excerpt: The separated proteins were stained with Coomassie brilliant blue (CBB).

[3] = system: COS-7 cells expressing Q45-GFP; assay: FCS analysis of polyQ oligomer formation in cell lysates; type: cell-based; conditions: 25 mM arginine, lysed 48 hours after transfection
Description: For polyQ oligomer formation, the fluorescent protein GFP fused with a protein having a PolyQ repeat consisting of 45 glutamines (Q45-GFP) was used as the monomer. Two indices obtained from FCS measurement were used to assess the property of polyQ oligomers; counts per particle (CPP) and the diffusion time of the fast components (DT1) (Non-Patent Document 11). […] DT1 reflects the size of the Q45-GFP oligomers.
FCS analysis was performed by the method described in Non-Patent Document 11. […] The cell lysates were gently sonicated and centrifuged to remove insoluble Q45-GFP inclusion bodies. The resulting supernatants containing no visible inclusion bodies were subjected to FCS measurements. From the measurements, the diffusion time, which corresponds to the average time for diffusion of fluorescent particles across the detection area and CPP, which directly reflects the number of fluorescent molecules per particle, were calculated.

[4] = system: Q40-GFP expressing nematode line; assay: lifespan analysis in C. elegans model of the PolyQ diseases; type: in vivo, Caenorhabditis elegans; conditions: 10 mM arginine; log-rank P<0.01
Description: As a C. elegans model of the polyQ diseases, a Q40-GFP expressing nematode line (Non-Patent Document 14), which is a C. elegans line expressing GFP having a polyQ repeat consisting of 40 glutamines (Q40-GFP) was used.
Nematodes were grown at 20° C. on nematode growth medium (NGM) plates seeded with Escherichia coli OP50. For the generation of the Q40-GFP expression nematode line, plasmids encoding Q40-GFP were injected into wild type strain N2.
For lifespan analysis, nematodes were cultured on OP50 bacteria, and were examined daily for signs of life.

[5] = system: Q40-GFP expressing nematode line; assay: SDD-AGE of polyQ oligomers in nematode lysates; type: in vivo, Caenorhabditis elegans; conditions: 10 mM arginine
Description: SDD-AGE was performed as follows. First, nematodes were lysed in lysis buffer (0.5% SDS, 0.5% NP-40, 50 mM Tris-HCl, 150 mM NaCl, 5 mM EDTA, protease inhibitor cocktail), the resulting lysate was run on a 1% agarose gel with 0.01% SDS in a running buffer of Tris-Glycine containing 0.01% SDS, and then transferred overnight onto a nitrocellulose membrane. For subsequent western blot analysis, the membrane was incubated with the anti-GFP antibody (MBL Life sciences) at 10,000 dilution as the primary antibody at 4° C. overnight, and then with the HRP-conjugated anti-rabbit IgG antibody (MBL Life sciences) at 20,000 dilution as the secondary antibody. Immunoblots were imaged using the Lumino image analyzer system “ImageQuant LAS 4000” (GE Healthcare Life Sciences) and analyzed using “ImageQuantTL” (GE Healthcare Life Sciences).

SCA1 mice [6] = assay: rotarod test, arginine from 3 weeks of age; type: in vivo, mouse; conditions: 6% by weight arginine in drinking water from 3 weeks of age
Excerpt: SCA1 mice express the abnormally expanded polyQ protein (the mutant ataxin 1 protein with polyQ repeats consisting of 154 glutamines) at endogenous levels and with accurate temporal and spatial patterns, and replicates numerous aspects of the human disease including progressive motor deficit. The SCA1 mice used in this experiment were a kind gift from Dr. Kei Watase (Tokyo Medical and Dental University, Japan).
Rotarod tests have been previously utilized for the assessment of motor function in SCA1 mice (Non-Patent Document 15).
For rotarod analysis, mice were tested on an accelerating rotarod apparatus (Ugo Basile) and performed according to the method described in Non-Patent Document 17. The time courses of the amount of walking time until wild type mice and SCA1 mice fell from the rotarod (Latency) are shown in FIG. 17. […] In the figure, values represent means±SEM (n=16-18), “**” represents p<0.01, and “***” represents p<0.001, respectively.

SCA1 mice [7] = assay: balance beam test; type: in vivo, mouse; conditions: 6% arginine in drinking water from 3 weeks; 28 weeks of age; vs untreated SCA1 mice
Description: SCA1 mice were also examined using the balance beam test to assess the motor coordination. For balance beam analysis, mice were assessed on their time to cross a beam with 1 m-long and 15 mm-diameter. The beam was placed approximately 50 cm above the ground with a bright light at the starting end and a dark box at the far end. Mice were initially trained for 3 consecutive days, 2 trials each, so that they learn to cross the beam without falling or turning around. On testing days, the time it took the mice to cross the beam was recorded. If the mice took longer than 60 seconds to cross, the score was counted as 60 seconds. Two trials were performed for each mouse, and a faster time was used for analysis.

amyloid-β (beta) 1-42 = target: T1, amyloid-β (beta) 1-42 (Homo sapiens, UniProt P05067); conditions: Non-Patent Document 2; cited from earlier work
T1 construct: amyloid-β (beta) 1-42

[8] = Non-Patent Document 5; cited from earlier work
[9] = Non-Patent Documents 3 and 4; cited from earlier work

T1 sequence (P05067 672-713 limits assumed): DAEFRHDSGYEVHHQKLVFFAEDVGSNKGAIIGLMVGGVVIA

## N=C(N)NCCC[C@H](N)C(=O)O [arginine]
Thio-Q62 protein [1]
  lag phase of turbidity time course: elongated the lag phase
  speed of aggregation (turbidity time course): decreased the speed of aggregation
Thio-Q62 protein [2]
  band of β-sheet-rich monomer (native PAGE, CBB): did not appear even when incubated for a sufficient period of time
[3]
  counts per particle (CPP): decreased compared to untreated cells
  diffusion time of the fast components (DT1): decreased compared to untreated cells
[4]
  survival rate: significantly improved
[5]
  smear intensity by image analysis: became smaller
  smear of Q40-GFP oligomers (SDD-AGE image): much lighter and less broad smear
SCA1 mice [6]; 4 to 12 weeks of age
  motor function, rotarod latency: significantly better than the untreated mice
SCA1 mice [6]; until 28 weeks of age
  therapeutic effect on rotarod, duration: remained significant until 28 weeks of age
SCA1 mice [7]
  time to cross the balance beam: significantly less time
amyloid-β (beta) 1-42
  aggregation of amyloid-β 1-42: prevents aggregation
[8]
  crossing of the blood brain barrier (BBB): known to cross the blood brain barrier
[9]
  safety in clinical trials: safety of arginine has been established
